Values quoted from earlier work, collected in patent US12533344B2, “Formulations” (Glaukos Corporation, priority 2021, dated 2026).
Read-outs that look alike come from different tables or passages of the source. Each block holds one compound with its values, some of them ahead of it.

Conditions: for Effective Buffering Range: pH range

Compound: O=C(O)CCCCCCCC(=O)O [Azeliac acid]
- pKa (buffers and stabilizers of Table 1): 4.60
- Effective Buffering Range: 3.3-6.0

Compound: CC[C@@H]1C(=O)OC[C@@H]1Cc1cncn1C [pilocarpine, reference compound]
- pKa of pilocarpine: ~6.5

Compound: Citrate buffer
- Effective Buffering Range (listed as Citrate buffer-pKa1): 2.2-5.0
- Effective Buffering Range (listed as Citrate buffer-pKa2): 3.0-6.2

The remaining lines, values ahead:

- Effective Buffering Range: 3.3-6.2
Compound: O=C1O[C@H]([C@@H](O)CO)C(O)=C1O [Ascorbic acid]

- Effective Buffering Range: 2.8-5.3
Compound: CC(O)C(=O)O (stereo not shown) [Lactic acid]
